Assay results taken from ChEMBL document CHEMBL1152314, “Antineoplastic agents. 565. Synthesis of combretastatin D-2 phosphate and dihydro-combretastatin D-2” (J Nat Prod, 2009).
pIC50: −log10 of the molar value. ≈ marks a conversion by molar mass, not a printed value. Calls of active or inactive are those of the source. No cut-off for these calls is given here.

Tests used:
[1] = Cytotoxicity against human breast cancer cells; format: functional; conditions: Cancer cell lines
Streptococcus pneumoniae = assay: Antimicrobial activity against Streptococcus pneumoniae ATCC 6303; format: functional, organism-based
Escherichia coli = assay: Antimicrobial activity against Escherichia coli ATCC 25922; format: functional, organism-based
[2] = Cytotoxicity against human lung cancer cells; format: functional; conditions: Cancer cell lines
Cryptococcus neoformans = assay: Antimicrobial activity against Cryptococcus neoformans ATCC 90112; format: functional, organism-based
Neisseria gonorrhoeae = assay: Antimicrobial activity against Neisseria gonorrhoeae ATCC 49226; format: functional, organism-based
Enterobacter cloacae = assay: Antimicrobial activity against Enterobacter cloacae ATCC 13047; format: functional, organism-based
Micrococcus luteus = assay: Antimicrobial activity against Micrococcus luteus Presque Isle 456; format: functional, organism-based
[3] = Solubility in water at 25 degC; format: physicochemical
Candida albicans = assay: Antimicrobial activity against Candida albicans ATCC 90028; format: functional, organism-based
P388 = assay: Cytotoxicity against mouse P388 cells; format: functional; conditions: read-out: ED50 (the source's name)
[4] = system: Stenotrophomonas maltophilia; assay: Antimicrobial activity against Stenotrophomonas maltophilia ATCC 13637; format: functional, organism-based
Staphylococcus aureus = assay: Antimicrobial activity against Staphylococcus aureus ATCC 29213; format: functional, organism-based
[5] = Cytotoxicity against human colon cancer cells; format: functional; conditions: Cancer cell lines
[6] = Inhibition of tubulin polymerization
Enterococcus faecalis = assay: Antimicrobial activity against Enterococcus faecalis ATCC 29212; format: functional, organism-based
[7] = Cytotoxicity against human prostate cancer cells; format: functional; conditions: Cancer cell lines
[8] = Cytotoxicity against human pancreatic cancer cells; format: functional; conditions: Cancer cell lines
[9] = Cytotoxicity against human brain cancer cells; format: functional; conditions: Cancer cell lines

Compound: O=C1CCc2ccc(O)c(c2)Oc2ccc(cc2)/C=C\CO1
- GI50 [1]: 6.6 µg/mL (≈ 22.3 µM)
- Activity (Streptococcus pneumoniae): inactive
- Activity (Escherichia coli): inactive
- GI50 [2]: 6 µg/mL (≈ 20.2 µM)
- Activity (Cryptococcus neoformans): inactive
- Activity (Neisseria gonorrhoeae): inactive
- Activity (Enterobacter cloacae): inactive
- Activity (Micrococcus luteus): inactive
- solubility ([3]; buffer): 0.5 mg/mL (≈ 1690 µM)
- Activity (Candida albicans): inactive
- EC50 (P388): 5.2 µg/mL (≈ 17.5 µM)
- Activity [4]: inactive
- Activity (Staphylococcus aureus): inactive
- GI50 [5]: > 10 µg/mL
- pIC50 [6]: < 4.40
- Activity (Enterococcus faecalis): inactive
- GI50 [7]: 2.7 µg/mL (≈ 9.11 µM)
- GI50 [8]: 4.8 µg/mL (≈ 16.2 µM)
- GI50 [9]: 4.7 µg/mL (≈ 15.9 µM)

Compound: O=C1CCc2ccc(O)c(c2)Oc2ccc(cc2)[C@H]2O[C@@H]2CO1
- EC50 (P388): 3.3 µg/mL (≈ 10.6 µM)
- pIC50 [6]: < 4.40

Compound: O=C1CCc2ccc(O)c(c2)Oc2ccc(cc2)CCCO1 [CORNICULATOLIDE A]
- Activity (Streptococcus pneumoniae): inactive
- Activity (Escherichia coli): inactive
- Activity (Cryptococcus neoformans): inactive
- Activity (Neisseria gonorrhoeae): inactive
- Activity (Enterobacter cloacae): inactive
- Activity (Micrococcus luteus): inactive
- Activity (Candida albicans): inactive
- EC50 (P388): > 100 µg/mL
- Activity [4]: inactive
- Activity (Staphylococcus aureus): inactive
- Activity (Enterococcus faecalis): inactive

Compound: C1COCCN1.C1COCCN1.O=C1CCc2ccc(OP(=O)(O)O)c(c2)Oc2ccc(cc2)/C=C\CO1
- GI50 [1]: > 10 µg/mL
- GI50 [2]: > 10 µg/mL
- solubility ([3]; water, read-out: solubility): 5 mg/mL
- EC50 (P388): 86.2 µg/mL
- GI50 [5]: > 10 µg/mL
- GI50 [7]: > 10 µg/mL
- GI50 [8]: > 10 µg/mL
- GI50 [9]: > 10 µg/mL

Compound: O=C(CCc1ccc(OCc2ccccc2)c(O)c1)OC/C=C\c1ccc(Br)cc1
- EC50 (P388): > 100 µg/mL

Compound: COc1ccc(CCC(=O)OCCCc2ccc(Br)cc2)cc1O
- EC50 (P388): > 100 µg/mL

Compound: COc1ccc(CCC(=O)OC/C=C\c2ccc(F)c([N+](=O)[O-])c2)cc1O
- EC50 (P388): 27 µg/mL (≈ 71.9 µM)

Compound: O=C(CCc1ccc(OCc2ccccc2)c(O)c1)OC/C=C\c1ccc(F)c([N+](=O)[O-])c1
- EC50 (P388): > 100 µg/mL

Compound: O=C1CCc2ccc(OCc3ccccc3)c(c2)Oc2ccc(cc2)CCCO1
- EC50 (P388): > 100 µg/mL

Compound: COc1ccc2cc1Oc1ccc(cc1)/C=C\COC(=O)CC2
- GI50 [1]: 0.83 µg/mL (≈ 2.67 µM)
- GI50 [2]: 6.6 µg/mL (≈ 21.3 µM)
- EC50 (P388): 8.1 µg/mL (≈ 26.1 µM)
- GI50 [5]: 9.4 µg/mL (≈ 30.3 µM)
- GI50 [7]: 5.6 µg/mL (≈ 18 µM)
- GI50 [8]: 7.3 µg/mL (≈ 23.5 µM)
- GI50 [9]: 2.2 µg/mL (≈ 7.09 µM)

Compound: O=C1CCc2ccc(OCc3ccccc3)c(c2)Oc2ccc(cc2)/C=C\CO1
- EC50 (P388): > 100 µg/mL

Compound: COc1ccc(/C=C\c2cc(OC)c(OC)c(OC)c2)cc1O [COMBRETASTATIN A4]
- EC50 (P388): 0.0034 µg/mL (≈ 0.0107 µM)

Compound: O=C1CCc2ccc(OP(=O)([O-])[O-])c(c2)Oc2ccc(cc2)/C=C\CO1.[Li+].[Li+]
- GI50 [1]: 26.1 µg/mL
- GI50 [2]: 14.4 µg/mL
- solubility ([3]; buffer): 20 mg/mL
- EC50 (P388): 27.1 µg/mL
- GI50 [5]: 27.5 µg/mL
- GI50 [7]: 4.3 µg/mL
- GI50 [8]: 35.9 µg/mL
- GI50 [9]: 37.9 µg/mL

Compound: COc1ccc(CCC(=O)OC/C=C\c2ccc(Br)cc2)cc1O
- GI50 [1]: 16.4 µg/mL (≈ 41.9 µM)
- GI50 [2]: 16.5 µg/mL (≈ 42.2 µM)
- EC50 (P388): > 100 µg/mL
- GI50 [5]: 17.1 µg/mL (≈ 43.7 µM)
- GI50 [7]: 8.9 µg/mL (≈ 22.7 µM)
- GI50 [8]: 16.4 µg/mL (≈ 41.9 µM)
- GI50 [9]: 18.5 µg/mL (≈ 47.3 µM)

Compound: O=C1CCc2ccc(OP(=O)([O-])[O-])c(c2)Oc2ccc(cc2)/C=C\CO1.[Na+].[Na+]
- GI50 [1]: 30.5 µg/mL
- GI50 [2]: 13.3 µg/mL
- solubility ([3]; buffer): > 70 mg/mL
- EC50 (P388): 23.9 µg/mL
- GI50 [5]: 25.5 µg/mL
- GI50 [7]: 18.2 µg/mL
- GI50 [8]: 22.1 µg/mL
- GI50 [9]: 36.3 µg/mL

Compound: COc1ccc(C[C@@H](O)c2cc(OC)c(OC)c(OC)c2)cc1O [COMBRETASTATIN]
- EC50 (P388): 0.011 µg/mL (≈ 0.0329 µM)
- pIC50 [6]: 5.30

Compound: O=C1CCc2ccc(OP(=O)([O-])[O-])c(c2)Oc2ccc(cc2)/C=C\CO1.[K+].[K+]
- GI50 [1]: 34.5 µg/mL
- GI50 [2]: 27.8 µg/mL
- solubility ([3]; buffer): > 50 mg/mL
- GI50 [5]: 40.6 µg/mL
- GI50 [7]: 14.4 µg/mL
- GI50 [8]: 40.1 µg/mL
- GI50 [9]: 45.2 µg/mL
